Test results from patent publication US8647615B1, “Methods for attracting honey bee parasitic mites” (The United States of America, as represented by the …, priority 2010, dated 2014).
“Also recorded” adds a separate entry of the source.

Legend:
Varroa mite forelegs = experiment: coupled gas chromatography and electroantennographic detection (GC-EAD) with mite forelegs; parameters: species or system Varroa mites; conditions: standard with compounds at equal concentrations
From the text: To determine if mites can detect the acid compounds we used coupled gas chromatography and electroantennographic detection (GC-EAD) and electroantennography (EAG). […] A detecting electrode was set up with electrode gel on each contact and then a mite was dissected so that both of its forelegs could be set across the electrodes. The electrode gel provides both a better contact and keeps the forelegs from drying out. For GC-EAD we used a standard containing our two attractive acids along with other short chain acids (i.e., acetic acid, propanoic acid, and hexanoic acid) and common bee odors (iso-pentyl acetate, delta-3-carene, E-(β)-ocimine) at equal concentrations. […] We used EAG to determine the responses of forelegs to the individual detected compounds. […] The dashed line in FIG. 6 represents the level of the control response.

Free-roaming mites = experiment: visual evaluation of free-roaming mites under the microscope; assay type: in vivo, Varroa mites; conditions: for excitation and search behaviors (questing and casting): acid volatiles from capillary tubes; for movement relative to acid droplets: free-roaming mites
From the text: (§1) Once we determined that the mites could perceive and respond to the acid volatiles, we examined whether these acids acted as attractants or repellents. We developed a four choice bioassay to evaluate the responses of mites to highly concentrated volatiles released at very close distances (7 mm). Our choice arena consisted of four odor sources presented directly beneath a permeable mesh floor. Each odor source was introduced by capillary release from a capillary tube, the volatiles diffused up through the permeable mesh floor. Free-roaming (off the adult bee) mites were introduced onto a vertical pin placed in the center of the arena. […] The expected value for response is 25% as indicated by the dashed line. […] Free-roaming mites were also exposed to these chemicals under the microscope to visually evaluate mite detection, attraction, and arrestant responses to the acid volatiles.

[1] = test system: Free-roaming (off the adult bee) mites; experiment: four choice arena bioassay; assay type: in vivo, Varroa mites; conditions: for mite attraction: movement toward odor source (contact or position at end of bioassay): 5% by volume in distilled water vs three water controls, 5 minutes, expected value 25%; for arrestant (stopping) behavior: four choice arena, 5% by volume in distilled water
From the text: as §1, with “We” for “Once we determined that the mites could perceive and respond to the acid volatiles, we examined whether these acids acted as attractants or repellents. We”

[2] = test system: phoretic mites on adult bees; experiment: bottom screen assay: mite-infested adult worker bees in screen bottomed jar over water trap; assay type: in vivo, Varroa mites; conditions: 20 minutes; for mites that fell off bees versus control jars: 200 mite-infested bees per jar, 100 μL, three replicates, control methylene chloride; for mite activity level versus control treatments: exposure to acid volatiles
Experimental: We then performed a bottom screen assay to assess the response of phoretic mites on adult bees to the acid volatiles. We placed 200 mite-infested adult worker bees in a screen bottomed jar inverted over a water trap. A total of nine jars were used, three replicates of each treatment. The mites and bees were exposed to either butyric acid, isobutyric acid, or a control solvent (methylene chloride) (100 μL) for 20 minutes. Mites that moved off the bees fell into the water trap below. At the end of the experiment, the bees were washed with alcohol to estimate the number of mites that remained on the bees.

mites [3] = experiment: no choice test with Ethovision analysis; assay type: in vivo, Varroa mites
From the text: (§2) This experiment used the tracking software Ethovision XT (Noldus Information Technology, Leesburg Va.) to monitor the position of mites in an arena. The arena was a four quadrant petri dish 7.5 cm in diameter, the sides of the dish were ground down so that the separations were all the same height as the edges. A plexiglass ring, 7.5 cm outside diameter 2.5 cm high, with 11 micron Nitex fabric attached to the bottom contained the mite and separated the mite from the odor sources but allowed the odors to diffuse through the fabric. The petri dish quadrants were filled either with 5% butyric acid in water, or water only as a control. Opposite quadrants were filled with the same material so that the bottom of each quadrant was completely covered with liquid. This ensured equal surface areas for diffusion of the solute and solvent. Each experiment was conducted with 8 mites. […] A second set of no choice assays was also performed, these assays used an un-separated petri dish to hold the 5% acid solution and the movements of the mites over the solution were monitored.

mites [4] = experiment: two choice diffusion bioassay, Ethovision tracking; assay type: in vivo, Varroa mites; conditions: 5% butyric acid in water vs water, 8 mites, p<0.001
From the text: as §2

Structure (SMILES): CC1=CCC2C(C1)C2(C)C (stereo not shown) [delta-3-carene]
- detection by mite forelegs (GC-EAD) (Varroa mite forelegs): did not appear to be detected

Structure (SMILES): C=C/C(C)=C/CC=C(C)C [E-(β)-ocimine]
- detection by mite forelegs (GC-EAD) (Varroa mite forelegs): did not appear to be detected

Structure (SMILES): CCC(=O)O [propanoic acid]
- detection by mite forelegs (GC-EAD) (Varroa mite forelegs): did not appear to be detected

Structure (SMILES): CC(C)C(=O)O [isobutyric acid]
- excitation and search behaviors (questing and casting) (Free-roaming mites): showed excitation and search behaviors
- movement relative to acid droplets (Free-roaming mites): moved toward and occasionally into acid droplets
- detection by mite forelegs (GC-EAD) (Varroa mite forelegs): excited by
- mite attraction: movement toward odor source (contact or position at end of bioassay) [1]: significantly more likely to move in the direction of
- arrestant (stopping) behavior [1]: did not display any arrestant (stopping) behavior
- mites that fell off bees versus control jars [2]: significantly more mites fell off bees
- mite activity level versus control treatments [2]: much higher activity levels

Structure (SMILES): CCCCCC(=O)O [hexanoic acid]
- detection by mite forelegs (GC-EAD) (Varroa mite forelegs): did not appear to be detected

Structure (SMILES): CC(=O)O [acetic acid]
- detection by mite forelegs (GC-EAD) (Varroa mite forelegs): could clearly detect

Structure (SMILES): CCCC(=O)O [butyric acid]
- excitation and search behaviors (questing and casting) (Free-roaming mites): showed excitation and search behaviors
- movement relative to acid droplets (Free-roaming mites): moved toward and occasionally into acid droplets
- detection by mite forelegs (GC-EAD) (Varroa mite forelegs): excited by
- movement (speed, stopping, time moving) versus water control (mites [3]; 5% acid solution, un-separated petri dish): significantly less time moving; also recorded: moving slower and stopping more often
- time spent in zone/arena over the acid versus water (mites [3]; 5% acid solution, un-separated petri dish, p<0.001): significantly more time; also recorded: spent more time in the arena
- arrestant behaviors on sustained exposure (mites [3]; EthoVision diffusion bioassays, sustained exposure to high concentrations of volatiles): caused arrestant behaviors
- mite attraction: movement toward odor source (contact or position at end of bioassay) [1]: significantly more likely to move in the direction of
- arrestant (stopping) behavior [1]: did not display any arrestant (stopping) behavior
- mites that fell off bees versus control jars [2]: significantly more mites fell off bees
- mite activity level versus control treatments [2]: much higher activity levels
- time spent in zone over odor source versus control zones (mites [4]): spent significantly more time
- time spent in zone over odor source versus control zones (mites [4]; listed as Butyric Acid): more time is spent

Structure (SMILES): CC(=O)OCCC(C)C [iso-pentyl acetate]
- detection by mite forelegs (GC-EAD) (Varroa mite forelegs): did not appear to be detected
